Entries after “also recorded” stand apart in the source; their conditions may differ.
Tests used:
[1] = cited from earlier work
SPP1 promoter = test: Dual-Glo luciferase reporter screen of SPP1 promoter activity (LOPAC library); format: cell-based
Excerpt: (A) Schematic representation of the DuoGlo construct used for high throughput compound screening. (B-C) SPP1 promoter activity after exposure of WM858 Dual-Glo cells to Vitamin D (B) or retinoid (C).
(§1) SPP1 is a pro-inflammatory inducer of skin fibrosis and skin aging. […] To screen for transcriptional silencers of SPP1 expression, cells with high endogenous SPP1 expression (e.g., melanoma cells) were identified. Then, the endogenous SPP1 promoter was tagged in melanoma cells with a dual luciferase reporter to create Dual-Glo cells using a genome editing approach. Firefly luciferase was introduced to assay SPP1 promoter activity; renilla luciferase was coupled to the CMV promoter as a loading control (FIG. 1A).

WM858 Dual-Glo cells = test: in vitro cell toxicity in the SPP1 screen; format: cell-based; conditions: in the SPP1 promoter screen
Excerpt: as §1

[2] = system: hypertrophic scar formation; test: hypertrophic scar formation, ischemic rabbit ear model, topical treatment; format: in vivo
Procedure: Topical pentamidine was evaluated using a hypertrophic scar formation rabbit ear model. Briefly, surgical ligation of leporine auricular vessels induced an ischemic landscape for hypertrophic scar production. Specifically, a cranial artery and vein were ligated; the caudal artery and vein were preserved; and the central artery was ligated, while the central vein was preserved in the rabbit ear (FIG. 2).
All surgeries were conducted in a disinfected area designated for surgical procedures and equipped with necessary lighting and equipment. Briefly, rabbits received intramuscular buprenorphine and enrofloxicin (5-10 mg/kg) prior to the surgery. Anesthesia was induced by a mixture of ketamine and intramuscular xylazine and monitored by medical sciences support staff. Study staff performed surgeries using sterile instruments, drapes, gloves, and gown. Following vascular ligation, one linear full-thickness skin wound was created on the ventral side of each ear with a surgical blade. The skin and perichondrium were removed. The base on which granulation and epithelialization take place was the cartilage. The edges of the wound were closed with 4-0 Nylon sutures.
Following ischemic wounding, the relative ischemia created in the ear at time of surgery and time of sacrifice was assessed with a fluorescent light assisted angiography (Spy Elite, LifeCell). Perfusion of the ear was assessed using the Spy Elite system following intravenous administration of indocyanine green, which utilizes infrared light to detect the dye (FIG. 3).
Following vascular ligation and linear wounding, a sterile occlusive dressing (TegaDerm, 3M) was used to cover the wound site. Animals were allowed to recover for three days without wound disturbance. After 72 hours, the dressing was changed, and the treatment was initiated. […] Daily dressing changes occurred until day 28. About 1/8 teaspoon ([…]) of the treatment agent was applied with each dressing change. Rabbits were trained on the animal snuggler for ease during treatment application.
Animals were monitored daily for any signs of postoperative discomfort, wound infection, weight loss, loss of appetite, and loss of contracture fixation. Any complications such as cage sores, wound infections, weight loss, or wound dehiscence were reviewed with the veterinarian and managed in a way designed to minimize discomfort or suffering. […] Six rabbits were used in this study. For three rabbits, the left ear received Treatment Group 1 (n=3), and the right ear received Treatment Group 2 (n=3). […] One rabbit was excluded from the study due to wound infection:
(§2) Female New Zealand white rabbit ears were used. In total, twelve linear wounds were created using minimally invasive vascular ligation in auricular blood vessels to create ischemic hypertrophic scars. Following surgical ligation, linear wounds were treated with either osteopontin inhibitor 2% topical pentamidine (n=6; left ear) or base only (n=6; right ear) for four weeks. After the treatment period, samples were fixed in 10% formaldehyde, embedded in paraffin and stained for p16 expression.
Female New Zealand white rabbits ears were used. In total, twelve linear wounds were created using minimally invasive vascular ligation in auricular blood vessels to create ischemic hypertrophic scars. Following surgical ligation, linear wounds were treated with the following dose titration: 0.5% pentamidine (n=3); 1% pentamidine (n=3); 2% pentamidine (n=3); or 5% pentamidine (n=3). […]

p16 = p16 expression staining in rabbit ear skin after topical treatment; format: in vivo; conditions: 2% topical pentamidine versus base only, four weeks, n=6 per group
Procedure: as §2

For `N=C(N)c1ccc(OCCCCCOc2ccc(C(=N)N)cc2)cc1` [Pentamidine isethionate, 4,4-[1,5-pentanediylbis(oxy)]bis-benzenecarboximidamid], the solubility in acetone ([1]; acetone) is listed as “insoluble”, the solubility in alcohol ([1]; alcohol) is listed as “soluble” and the solubility in chloroform ([1]; chloroform) is listed as “insoluble”. For the same compound, the solubility in ether ([1]; ether) was “insoluble”, the solubility in glycerin ([1]; glycerin) was “soluble” and the solubility in water ([1]; water) was “soluble”.

For `N=C(N)c1ccc(OCCCCCOc2ccc(C(=N)N)cc2)cc1` [pentamidine, 4,4′-[pentane-1,5-diylbis(oxy)]dibenzenecarboximidamide], the “inhibition of SPP1 promoter activity” value (SPP1 promoter; Dual-Glo melanoma cells, firefly luciferase at the SPP1 promoter, renilla/CMV as loading control) was “greater than 80%”, the “in vitro cell toxicity” value (WM858 Dual-Glo cells) was “minimal in vitro cell toxicity” and the hypertrophic scar formation ([2]; 0.5% pentamidine, n=3) was “no response to minimal reduction”. For the same compound, the hypertrophic scar formation ([2]; 1% pentamidine, n=3) was “no response to minimal reduction”, the hypertrophic scar formation ([2]; 2% pentamidine in Pracasil-Plus base, daily, four weeks) was “Minimal hypertrophic scaring; also recorded: significantly inhibited hypertrophic scar formation; also recorded: observable scar reduction” and the “re-epithelization of the wound” value ([2]; 2% pentamidine, n=3) was “Effective re-epithelization”. For the same compound, the “wound outcome at high dose” value ([2]; 5% pentamidine, n=3) was “non-healing wound and abscess formation” and the “p16 expression levels in dermal and epidermal regions” value (p16) was “decreased p16 levels; also recorded: reduced p16 expression levels”.

In the case of Vitamin D, the “effect on SPP1 promoter activity” value (SPP1 promoter; WM858 Dual-Glo cells) is reported as “activated”.
